# Measurements: patent US20250215029A1 (Recludix Pharma, Inc., priority 2022, published 2025)
# Like-named read-outs stand apart in the source and are kept apart here.
# Experiments:
# [1] = target: T1, Recombinant STAT3 protein (STAT3 (G127-I722)) (Homo sapiens, UniProt P40763); test: STAT3 Fluorescence Polarization (FP) Assay; format: binding; settings: probe 5-FAM-GpYLPQTV-NH2 2 nM, 45-minute incubation
# T1 construct: Recombinant STAT3 protein (STAT3 (G127-I722))
# Experimental: STAT3 Fluorescence Polarization (FP) Assay
# An FP assay was developed to determine IC50 values for test substances. Recombinant STAT3 protein (STAT3 (G127-I722)) at 25 nM was combined with a fluorescently labeled, phosphotyrosine peptide probe (5-FAM-GpYLPQTV-NH2) at 2 nM in FP buffer (10 mM HEPES pH 7.4, 50 mM NaCl, 1 mM EDTA, 0.05% Tween 20.2 mM DTT). 50 μL of STAT3-probe mixture was added to serial diluted compounds in black, 96-well plates (Greiner BioOne 655076) to a final concentration of 1% DMSO. Reaction components were mixed, and FP was measured after 45-minute incubation at room temperature using a Tecan Spark multimode plate reader. FP signal (mP) was plotted against the log concentration of the test substances and IC50 values were calculated by nonlinear regression analysis using GraphPad Prism software. For STAT3 FP assay, A=≤100 nM; B=>100-1000 nM; C=>1-10 μM; and D=>10 μM.
# [2] = target: T2, Recombinant STAT6 protein (STAT6 (W123-T658)) (Homo sapiens, UniProt P42226); test: STAT6 Fluorescence Polarization (FP) Assay; format: binding; settings: 45-minute incubation
# T2 construct: Recombinant STAT6 protein (STAT6 (W123-T658))
# T2 sequence (P42226 123-658): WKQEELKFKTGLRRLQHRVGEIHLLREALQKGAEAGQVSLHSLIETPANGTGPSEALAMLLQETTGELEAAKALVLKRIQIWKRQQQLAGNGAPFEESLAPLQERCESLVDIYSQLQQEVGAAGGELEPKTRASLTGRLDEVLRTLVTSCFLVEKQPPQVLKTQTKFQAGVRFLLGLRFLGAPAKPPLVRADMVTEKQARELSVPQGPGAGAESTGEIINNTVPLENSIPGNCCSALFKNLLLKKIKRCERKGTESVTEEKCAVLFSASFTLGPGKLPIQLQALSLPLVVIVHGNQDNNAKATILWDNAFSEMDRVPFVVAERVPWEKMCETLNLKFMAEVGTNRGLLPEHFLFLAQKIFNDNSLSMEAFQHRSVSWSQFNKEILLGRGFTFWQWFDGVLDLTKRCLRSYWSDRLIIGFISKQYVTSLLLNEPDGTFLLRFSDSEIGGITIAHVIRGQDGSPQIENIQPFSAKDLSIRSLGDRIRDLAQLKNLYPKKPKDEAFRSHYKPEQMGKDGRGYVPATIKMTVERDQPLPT
# Experimental: STAT6 Fluorescence Polarization (FP) Assay
# An FP assay was developed to determine IC50 values for test substances. Recombinant STAT6 protein (STAT6 (W123-T658)) at 250 nM was combined with a fluorescently labeled, phosphotyrosine peptide probe (5-FAM-Ap[…]-NH2) at 2 nM in FP buffer (10 mM HEPES pH 7.4, 50 mM NaCl, 1 mM EDTA, 0.05% Tween 20, 2 mM DTT). 50 μL of STAT6-probe mixture was added to serial diluted compounds in black, 96-well plates (Greiner BioOne 655076) to a final concentration of 1% DMSO. Reaction components were mixed, and FP was measured after 45-minute incubation at room temperature using a Tecan Spark multimode plate reader. FP signal (mP) was plotted against the log concentration of the test substances and IC50 values were calculated by nonlinear regression analysis using GraphPad Prism software. For STAT6 FP assay, A=≤300 nM; B=>300-3000 nM; C=>3-30 μM; and D=>30 μM.
# [3] = STAT3 (G127-I722) 25 nM, read-out: STAT3 (FP assay IC50 class)
# [4] = STAT6 (W123-T658) 250 nM, probe 5-FAM-ApYKPFQDLI-NH2 2 nM, read-out: STAT6 (FP assay IC50 class)
# [5] = STAT3 25 nM, read-out: STAT3 (FP assay IC50)
# [6] = STAT6 250 nM, probe 5-FAM-Ap[…]-NH2 2 nM, read-out: STAT6 (FP assay IC50)
# [7] = STAT6 (W123-T658) 250 nM, probe 5-FAM-Ap[…]-NH2 2 nM, read-out: STAT6 (FP assay IC50 class)
# T1 sequence (P40763 127-722): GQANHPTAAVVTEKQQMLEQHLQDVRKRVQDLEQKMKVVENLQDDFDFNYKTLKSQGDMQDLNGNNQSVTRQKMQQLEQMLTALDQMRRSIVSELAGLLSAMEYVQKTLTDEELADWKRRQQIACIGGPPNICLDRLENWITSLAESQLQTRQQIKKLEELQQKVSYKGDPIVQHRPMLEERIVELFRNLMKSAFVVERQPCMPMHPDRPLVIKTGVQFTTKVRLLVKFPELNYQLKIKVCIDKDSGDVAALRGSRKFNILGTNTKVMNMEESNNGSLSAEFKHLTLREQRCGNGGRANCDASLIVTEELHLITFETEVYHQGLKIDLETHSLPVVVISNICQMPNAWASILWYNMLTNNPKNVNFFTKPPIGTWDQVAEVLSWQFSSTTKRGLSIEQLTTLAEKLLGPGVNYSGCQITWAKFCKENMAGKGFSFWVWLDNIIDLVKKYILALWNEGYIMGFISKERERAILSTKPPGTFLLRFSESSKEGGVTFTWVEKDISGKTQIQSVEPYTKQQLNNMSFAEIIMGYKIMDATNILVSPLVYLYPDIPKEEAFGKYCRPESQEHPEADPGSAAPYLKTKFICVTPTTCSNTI
Compound,"IC50 [1, 3] [µM]","IC50 [2, 4] [µM]","IC50 [1, 5] [µM]","IC50 [2, 6] [µM]","IC50 [2, 7] [µM]"
"((S)-(2- (((3S,6S,9aS)-3- ((6S,7R)-7-cyano-6- (pyridin-3-yl)-4- azaspiro[2.4] heptane-4- carbonyl)-5- oxooctahydro-1H- pyrrolo[1,2- a]azepin-6- yl)carbamoyl)benzo [b]thiophen-5- yl)fluoromethyl) phosphonic acid [Compound 838]",1 to 10,≤ 0.3,–,–,–
"O=C(N[C@H]1CCC[C@H]2CC[C@@H](C(=O)N3CC(c4nc5ccccc5[nH]4)C3)N2C1=O)c1cc2cc(C(F)(F)P(=O)(O)O)ccc2s1 [Compound 43, ((2-(((3S,6S,9aS)-3-(3-(1H-benzo[d]imidazol-2-yl)azetidine-1-carbonyl)-5-oxooctahydro-1H-pyrrolo[1,2-a]azepin-6-yl)carbamoyl)benzo[b]thiophen-5-yl)difluoromethyl) phosphonic acid]",–,–,< 0.1,0.3 to 3,–
"C[C@H]1C[C@H]2CC[C@@H](C(=O)N3CC(c4cncnc4N4CCC4)C3)N2C(=O)[C@@H](NC(=O)c2cc3cc(CP(=O)(O)O)ccc3s2)C1 [Compound 678, ((2-(((3S,6S,8R,9aR)-3-(3-(4-(azetidin-1-yl)pyrimidin-5-yl)azetidine-1-carbonyl)-8-methyl-5-oxooctahydro-1H-pyrrolo[1,2-a]azepin-6-yl)carbamoyl)benzo [b]thiophen-5-yl)methyl) phosphonic acid]",< 0.1,–,–,–,3 to 30
"N#C[C@H]1CN(C(=O)[C@@H]2CC[C@@H]3CCCC[C@H](NC(=O)c4cc5cc(C(F)(F)P(=O)(O)O)ccc5s4)C(=O)N32)C[C@@H]1c1ccc2cn[nH]c2c1 (racemic) [Compound 99, ((2-(((3S,6S,10aS)-3-(rel-(trans)-3-cyano-4-(1H-indazol-6-yl)pyrrolidine-1-carbonyl)-5-oxodecahydropyrrolo [1,2-a]azocin-6-yl)carbamoyl)benzo[b]thiophen-5-yl)difluoromethyl) phosphonic acid]",–,–,0.1 to 1,0.3 to 3,–
"N#Cc1ccnc(C2CN(C(=O)[C@@H]3CC[C@@H]4CCC[C@H](NC(=O)c5cc6cc(C(F)(F)P(=O)(O)O)ccc6s5)C(=O)N43)C2)n1 [Compound 824, ((2-(((3S,6S,9aS)-3-(3-(4-cyanopyrimidin-2-yl)azetidine-1-carbonyl)-5-oxooctahydro-1H-pyrrolo[1,2-a]azepin-6-yl)carbamoyl)benzo [b]thiophen-5-yl)difluoromethyl) phosphonic acid]",< 0.1,–,–,–,0.3 to 3
"Cn1ccc(C2CCN(C(=O)[C@@H]3CC[C@@H]4CCCC[C@H](NC(=O)c5ccc6ccc(C(F)P(=O)(O)O)cc6c5)C(=O)N43)C2)cc1=O (stereo partly drawn) [Compound 899, (fluoro(7-(((3S,6S,10aS)-3-(3-(1-methyl-2-oxo-1,2-dihydropyridin-4-yl)pyrrolidine-1-carbonyl)-5-oxodecahydropyrrolo [1,2-a]azocin-6-yl)carbamoyl)naphthalen-2-yl)methyl) phosphonic acid]",1 to 10,–,–,–,0.3 to 3
"N#C[C@@H]1CN(C(=O)[C@@H]2CC[C@@H]3CCCC[C@H](NC(=O)c4cc5cc(C(F)P(=O)(O)O)ccc5s4)C(=O)N32)C[C@H]1c1ccccc1 (single isomer, unassigned) [Compound 225]",1 to 10,≤ 0.3,–,–,–
"CN(C(=O)[C@@H]1CC[C@@H]2CCC[C@H](NC(=O)c3cc4cc(C(F)(F)P(=O)(O)O)ccc4s3)C(=O)N21)c1ccccc1 [Compound 111, (Difluoro(2-(((3S,6S,9aS)-3-(methyl(phenyl)carbamoyl)-5-oxooctahydro-1H-pyrrolo[1,2-a]azepin-6-yl)carbamoyl)benzo[b]thiophen-5-yl)methyl)phosphonic acid]",–,–,1 to 10,0.3 to 3,–
"O=C(N[C@H]1CCC[C@H]2CC[C@@H](C(=O)N3CC(n4cnccc4=O)C3)N2C1=O)c1cc2cc(C(F)P(=O)(O)O)ccc2s1 (stereo partly drawn) [Compound 609, (fluoro(2-(((3S,6S,9aS)-5-oxo-3-(3-(6-oxopyrimidin-1(6H)-yl)azetidine-1-carbonyl)octahydro-1H-pyrrolo[1,2-a]azepin-6-yl)carbamoyl)benzo [b]thiophen-5-yl)methyl) phosphonic acid]",0.1 to 1,–,–,–,3 to 30
"N#Cc1ccnc(C2CN(C(=O)[C@@H]3CC[C@@H]4CCC[C@H](NC(=O)c5cc6cc(CP(=O)(O)O)ccc6s5)C(=O)N43)C2)n1 [Compound 660, ((2-(((3S,6S,9aS)-3-(3-(4-cyanopyrimidin-2-yl)azetidine-1-carbonyl)-5-oxooctahydro-1H-pyrrolo[1,2-a]azepin-6-yl)carbamoyl)benzo [b]thiophen-5-yl)methyl) phosphonic acid]",1 to 10,–,–,–,3 to 30
"O=C(N[C@H]1CCC[C@H]2CC[C@@H](C(=O)N3CC(c4cccnc4)C3)N2C1=O)c1cc2cc([C@@H](F)P(=O)(O)O)ccc2s1 [Compound 873, ((S)-fluoro(2-(((3S,6S,9aS)-5-oxo-3-(3-(802yridine-3-yl)azetidine-1-carbonyl)octahydro-1H-pyrrolo[1,2-a]azepin-6-yl)carbamoyl)benzo [b]thiophen-5-yl)methyl) phosphonic acid]",< 0.1,3 to 30,–,–,–
"O=C(N[C@H]1CCC[C@H]2CC[C@@H](C(=O)N3CC(c4nccnc4F)C3)N2C1=O)c1cc2cc(CP(=O)(O)O)ccc2s1 [Compound 538, ((2-(((3S,6S,9aS)-3-(3-(3-fluoropyrazin-2-yl)azetidine-1-carbonyl)-5-oxooctahydro-1H-pyrrolo[1,2-a]azepin-6-yl)carbamoyl)benzo[b]thiophen-5-yl)methyl)phosphonic acid]",1 to 10,–,–,–,3 to 30
"C[C@@H]1[C@@H](c2cccnc2)CN1C(=O)[C@@H]1CC[C@@H]2CCC[C@H](NC(=O)c3cc4cc(C(F)P(=O)(O)O)ccc4s3)C(=O)N21 (single isomer, unassigned) [Compound 738]",< 0.1,–,–,–,0.3 to 3
"O=C(N[C@H]1CCC[C@H]2CC[C@@H](C(=O)N3CC(c4cnccc4N4CC[C@H](F)C4)C3)N2C1=O)c1cc2cc(CP(=O)(O)O)ccc2s1 [Compound 666, ((2-(((3S,6S,9aS)-3-(3-(4-((S)-3-fluoropyrrolidin-1-yl)pyridin-3-yl)azetidine-1-carbonyl)-5-oxooctahydro-1H-pyrrolo[1,2-a]azepin-6-yl)carbamoyl)benzo [b]thiophen-5-yl)methyl) phosphonic acid]",< 0.1,–,–,–,3 to 30
"CN1CCN(C(=O)[C@@H]2CC[C@@H]3CCC[C@H](NC(=O)c4cc5cc(C(F)P(=O)(O)O)ccc5s4)C(=O)N32)c2ccccc21 (stereo partly drawn) [Compound 763, (fluoro(2-(((3S,6S,9aS)-3-(4-methyl-1,2,3,4-tetrahydro-quinoxaline-1-carbonyl)-5-oxooctahydro-1H-pyrrolo[1,2-a]azepin-6-yl)carbamoyl)benzo [b]thiophen-5-yl)methyl) phosphonic acid]",1 to 10,–,–,–,3 to 30
"CN(C)c1ccncc1C1CN(C(=O)[C@@H]2CC[C@@H]3CCC[C@H](NC(=O)c4cc5cc([C@@H](F)P(=O)(O)O)ccc5s4)C(=O)N32)C1 (single isomer, unassigned) [Compound 631]",< 0.1,–,–,–,3 to 30
